Assay results published in ChEMBL document CHEMBL1201862, “PubChem BioAssay data set” (2004).
Calls of active or inactive are those of the source.

Legend:
[1] = biological target: T1, Histone-lysine N-methyltransferase NSD2 (Homo sapiens, UniProt O96028); assay type: biochemical
T1 sequence (O96028 whole entry): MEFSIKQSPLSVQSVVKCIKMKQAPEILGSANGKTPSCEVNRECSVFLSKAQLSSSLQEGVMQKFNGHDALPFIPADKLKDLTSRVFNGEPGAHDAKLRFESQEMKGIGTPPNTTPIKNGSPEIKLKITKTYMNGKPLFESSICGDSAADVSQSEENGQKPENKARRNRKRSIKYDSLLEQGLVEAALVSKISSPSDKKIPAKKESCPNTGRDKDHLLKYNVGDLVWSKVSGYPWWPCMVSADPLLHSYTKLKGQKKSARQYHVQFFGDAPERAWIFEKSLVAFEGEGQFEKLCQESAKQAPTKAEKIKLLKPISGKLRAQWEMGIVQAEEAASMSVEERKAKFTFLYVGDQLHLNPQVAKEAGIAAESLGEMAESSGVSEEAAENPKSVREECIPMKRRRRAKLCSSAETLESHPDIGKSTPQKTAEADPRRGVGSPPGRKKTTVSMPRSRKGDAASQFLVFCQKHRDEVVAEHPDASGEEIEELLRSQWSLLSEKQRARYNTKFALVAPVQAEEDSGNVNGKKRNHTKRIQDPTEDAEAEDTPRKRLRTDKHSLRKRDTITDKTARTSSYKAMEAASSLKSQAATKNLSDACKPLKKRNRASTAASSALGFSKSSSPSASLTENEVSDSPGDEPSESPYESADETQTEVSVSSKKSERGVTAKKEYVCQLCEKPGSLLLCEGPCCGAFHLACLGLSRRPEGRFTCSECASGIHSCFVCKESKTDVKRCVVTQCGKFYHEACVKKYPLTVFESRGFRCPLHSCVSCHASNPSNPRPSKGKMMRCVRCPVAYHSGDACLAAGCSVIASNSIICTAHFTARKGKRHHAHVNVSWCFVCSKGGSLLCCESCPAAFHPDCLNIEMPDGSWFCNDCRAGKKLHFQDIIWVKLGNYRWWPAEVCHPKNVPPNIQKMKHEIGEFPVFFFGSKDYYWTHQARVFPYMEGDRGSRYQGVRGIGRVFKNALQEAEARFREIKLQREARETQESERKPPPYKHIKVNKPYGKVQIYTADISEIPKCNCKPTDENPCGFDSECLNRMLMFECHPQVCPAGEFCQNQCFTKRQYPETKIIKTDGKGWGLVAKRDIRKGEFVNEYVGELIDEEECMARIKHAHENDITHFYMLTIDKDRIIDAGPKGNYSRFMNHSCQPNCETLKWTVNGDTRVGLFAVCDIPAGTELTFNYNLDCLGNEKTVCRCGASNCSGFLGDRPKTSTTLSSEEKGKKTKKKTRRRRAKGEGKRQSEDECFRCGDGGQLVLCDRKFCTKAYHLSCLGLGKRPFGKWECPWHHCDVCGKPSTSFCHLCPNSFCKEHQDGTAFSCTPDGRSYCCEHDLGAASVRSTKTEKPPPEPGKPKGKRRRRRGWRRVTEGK

[2] = biological target: DNA dC->dU-editing enzyme APOBEC-3A (Homo sapiens, UniProt P31941); experiment: Dose Response confirmation of small molecule APOBEC3A DNA Deaminase Inhibitors via a fluorescence-based single-stranded DNA deaminase assay. [Related pubchem assays (depositor defined):AID493011, AID493024]; assay type: functional
Vero = experiment: viability of Vero cells under compound – cytotoxicity control for flavivirus capping enzyme inhibitors (AID 588742); assay type: functional; details: Chlorocebus sabaeus
Genome polyprotein = Genome polyprotein (dengue virus type 2, UniProt P29990); experiment: flavivirus cap methylation enzyme inhibition – biochemical, confirmation dose response, primary screen (AID 588689); assay type: functional
Chain of Genome polyprotein (P29990 2492-3391 limits assumed): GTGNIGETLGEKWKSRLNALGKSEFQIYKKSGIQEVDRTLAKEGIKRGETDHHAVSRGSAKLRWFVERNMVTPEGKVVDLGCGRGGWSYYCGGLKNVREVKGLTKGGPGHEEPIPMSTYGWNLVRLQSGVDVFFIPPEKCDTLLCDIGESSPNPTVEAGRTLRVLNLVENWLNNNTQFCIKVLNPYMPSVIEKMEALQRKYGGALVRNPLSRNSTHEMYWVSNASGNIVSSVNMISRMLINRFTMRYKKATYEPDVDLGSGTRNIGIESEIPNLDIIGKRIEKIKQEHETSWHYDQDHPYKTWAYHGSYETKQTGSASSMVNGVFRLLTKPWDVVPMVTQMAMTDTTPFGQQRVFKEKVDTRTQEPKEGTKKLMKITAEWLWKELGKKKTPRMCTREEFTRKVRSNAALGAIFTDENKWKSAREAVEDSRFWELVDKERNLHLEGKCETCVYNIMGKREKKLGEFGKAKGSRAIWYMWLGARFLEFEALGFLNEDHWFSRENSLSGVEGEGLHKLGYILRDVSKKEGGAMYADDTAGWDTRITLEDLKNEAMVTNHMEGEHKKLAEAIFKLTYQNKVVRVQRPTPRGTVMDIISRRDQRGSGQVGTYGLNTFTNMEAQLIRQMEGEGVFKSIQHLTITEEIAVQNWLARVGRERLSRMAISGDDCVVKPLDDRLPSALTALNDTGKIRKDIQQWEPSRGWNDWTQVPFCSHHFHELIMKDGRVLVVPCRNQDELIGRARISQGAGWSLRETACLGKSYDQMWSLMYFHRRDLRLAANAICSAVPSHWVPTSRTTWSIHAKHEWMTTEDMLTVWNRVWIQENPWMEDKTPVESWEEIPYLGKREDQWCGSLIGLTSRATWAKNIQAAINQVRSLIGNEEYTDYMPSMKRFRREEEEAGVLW

[3] = biological target: DNA dC->dU-editing enzyme APOBEC-3G (Homo sapiens, UniProt Q9HC16); assay type: functional;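 further: Dose-response counterscreen measuring inhibition of APOBEC3G DNA deaminase activity, run while confirming APOBEC3A inhibitors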
Chain of DNA dC->dU-editing enzyme APOBEC-3G (Q9HC16 whole entry): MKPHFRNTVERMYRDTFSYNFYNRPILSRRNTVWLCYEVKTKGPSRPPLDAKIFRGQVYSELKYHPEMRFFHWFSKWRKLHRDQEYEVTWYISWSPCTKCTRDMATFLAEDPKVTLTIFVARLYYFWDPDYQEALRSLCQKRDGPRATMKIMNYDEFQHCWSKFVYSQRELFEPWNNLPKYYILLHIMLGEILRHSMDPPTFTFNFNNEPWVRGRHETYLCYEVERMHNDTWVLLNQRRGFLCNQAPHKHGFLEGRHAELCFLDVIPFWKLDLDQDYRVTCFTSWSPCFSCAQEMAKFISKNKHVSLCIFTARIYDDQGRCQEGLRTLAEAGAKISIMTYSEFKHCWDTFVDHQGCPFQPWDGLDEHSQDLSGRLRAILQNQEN

Integrin alpha-L = Integrin alpha-L (Mus musculus, UniProt P24063); experiment: modulators of CD8 T cell-vesicle binding, dose response, powder samples, mouse 2C CD8+ cells (AID 504565); assay type: functional
T-cell = experiment: loss of vesicle association with mouse CD8+ T cells – mouse 2C CD8+ T cells, flow cytometry, dose response (AID 485284); assay type: functional
Coagulation factor XII = biological target: T2, Coagulation factor XII (Homo sapiens, UniProt P00748); experiment: Factor XIIa Dose Response Confirmation from Single Well HTS. [Related pubchem assays (depositor defined):AID701]; assay type: functional
T2 sequence (P00748 whole entry): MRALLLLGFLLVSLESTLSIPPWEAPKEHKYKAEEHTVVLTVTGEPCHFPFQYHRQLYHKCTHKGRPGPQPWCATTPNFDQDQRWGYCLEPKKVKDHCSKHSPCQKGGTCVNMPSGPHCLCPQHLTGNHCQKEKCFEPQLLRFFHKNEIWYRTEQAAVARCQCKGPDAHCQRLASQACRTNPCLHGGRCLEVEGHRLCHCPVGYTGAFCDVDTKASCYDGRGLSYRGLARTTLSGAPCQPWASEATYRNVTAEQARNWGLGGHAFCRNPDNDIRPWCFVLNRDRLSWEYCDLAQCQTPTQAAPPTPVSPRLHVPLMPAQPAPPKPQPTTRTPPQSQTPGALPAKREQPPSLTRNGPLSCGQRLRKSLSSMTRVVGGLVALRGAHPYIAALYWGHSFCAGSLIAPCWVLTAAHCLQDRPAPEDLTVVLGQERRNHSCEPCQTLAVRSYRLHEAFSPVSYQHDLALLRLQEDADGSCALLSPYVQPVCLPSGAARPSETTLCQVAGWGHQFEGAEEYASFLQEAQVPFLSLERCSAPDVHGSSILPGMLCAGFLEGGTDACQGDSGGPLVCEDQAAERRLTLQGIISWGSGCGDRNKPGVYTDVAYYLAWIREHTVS

[4] = biological target: T3, Kappa-type opioid receptor (Homo sapiens, UniProt P41145); experiment: SAR analysis of small molecule antagonists of the kappa opioid receptor via a luminescent beta-arrestin assay - Set 3. [Related pubchem assays (depositor defined):AID1777, AID1778, AID1785, AID1786, AID1966, AID2133, AID2136, AID2285, AID2495]; assay type: functional
T3 sequence (P41145 whole entry): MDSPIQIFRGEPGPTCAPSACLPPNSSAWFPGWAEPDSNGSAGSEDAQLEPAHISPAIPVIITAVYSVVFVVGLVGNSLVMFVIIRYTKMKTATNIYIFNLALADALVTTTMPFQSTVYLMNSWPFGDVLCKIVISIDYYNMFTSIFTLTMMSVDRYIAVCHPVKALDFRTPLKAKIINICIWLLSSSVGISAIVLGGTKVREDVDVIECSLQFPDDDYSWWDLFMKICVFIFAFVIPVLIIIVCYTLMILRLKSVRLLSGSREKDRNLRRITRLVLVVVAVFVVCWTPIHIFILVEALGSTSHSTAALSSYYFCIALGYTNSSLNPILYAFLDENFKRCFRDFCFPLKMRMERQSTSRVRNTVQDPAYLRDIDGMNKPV

Mu-type opioid receptor = Mu-type opioid receptor (Homo sapiens, UniProt P35372); experiment: SAR Analysis of Antagonists of the MOR Receptor using an Image-Based Assay - Set 3. [Related pubchem assays (depositor defined):AID1777, AID1785, AID1786, AID1966, AID2133, AID2136, AID2284, AID2285, AID2420]; assay type: functional
[5] = biological target: T3, Kappa-type opioid receptor; experiment: SAR analysis of Antagonists of the Kappa Opioid Receptor (KOR) using an Image-Based Assay - Set 3. [Related pubchem assays (depositor defined):AID1777, AID1785]; assay type: functional
[6] = biological target: Delta-type opioid receptor (Homo sapiens, UniProt P41143); experiment: SAR Analysis of Antagonists of the DOR Receptor using an Image-Based Assay - Set 3. [Related pubchem assays (depositor defined):AID1777, AID1785]; assay type: functional;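 further: U2OS cells expressing DOR1 and beta-arrestin GFP stimulated with 100 nM SNC80; imaging of GFP-tagged beta-arrestin moving into spots after receptor activation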
Hexokinase = Hexokinase (Trypanosoma brucei, UniProt Q38C41); experiment: Confirmation assay for inhibitors of Trypanosoma brucei hexokinase 1-Analogue-first series. [Related pubchem assays (depositor defined):AID1430, AID1632, AID2516, AID2560, AID2579, AID2600, AID449725, AID492951]; assay type: functional
[7] = biological target: T4, Dual specificity protein phosphatase 6 (Rattus norvegicus, UniProt Q64346); assay type: functional;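 further: confirmatory in vitro dose-response testing of MKP-3 inhibition; recombinant His-tagged MKP-3 made in E. coli BL21 with OMFP substrate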
T4 sequence (Q64346 whole entry): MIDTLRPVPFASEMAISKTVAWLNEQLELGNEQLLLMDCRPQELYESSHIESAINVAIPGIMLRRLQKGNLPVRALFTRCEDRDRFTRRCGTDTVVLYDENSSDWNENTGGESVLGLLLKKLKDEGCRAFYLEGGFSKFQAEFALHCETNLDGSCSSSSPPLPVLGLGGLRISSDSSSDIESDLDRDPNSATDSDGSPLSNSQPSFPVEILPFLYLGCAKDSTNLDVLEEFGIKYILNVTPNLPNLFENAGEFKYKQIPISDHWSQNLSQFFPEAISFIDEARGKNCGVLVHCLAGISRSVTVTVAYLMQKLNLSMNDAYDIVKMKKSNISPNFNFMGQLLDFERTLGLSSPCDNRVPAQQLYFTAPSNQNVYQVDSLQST

[8] = biological target: T5, Dual specificity protein phosphatase 3 (Homo sapiens, UniProt P51452); experiment: SAR VHR1 absorbance Assay for In Vitro dose response studies. [Related pubchem assays (depositor defined):AID1654, AID1661, AID1878, AID1992, AID2004]
T5 sequence (P51452 whole entry): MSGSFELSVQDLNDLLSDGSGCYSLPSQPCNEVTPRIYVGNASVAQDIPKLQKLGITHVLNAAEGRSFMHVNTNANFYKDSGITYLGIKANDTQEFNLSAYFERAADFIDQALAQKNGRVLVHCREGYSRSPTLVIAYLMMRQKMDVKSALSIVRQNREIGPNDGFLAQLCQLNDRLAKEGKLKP

[9] = biological target: T5, Dual specificity protein phosphatase 3; experiment: SAR VHR1 Fluorescent Assay for In Vitro dose response studies. [Related pubchem assays (depositor defined):AID1654, AID1661, AID1878, AID1992, AID2004, AID2070, AID2085]; assay type: functional
[10] = biological target: T6, Tyrosine-protein phosphatase non-receptor type 7 (Homo sapiens, UniProt P35236); experiment: redox-active compounds inhibiting HePTP phosphatase – biochemical, fluorescence, mechanism study (AID 2068); assay type: functional
T6 sequence (P35236 whole entry): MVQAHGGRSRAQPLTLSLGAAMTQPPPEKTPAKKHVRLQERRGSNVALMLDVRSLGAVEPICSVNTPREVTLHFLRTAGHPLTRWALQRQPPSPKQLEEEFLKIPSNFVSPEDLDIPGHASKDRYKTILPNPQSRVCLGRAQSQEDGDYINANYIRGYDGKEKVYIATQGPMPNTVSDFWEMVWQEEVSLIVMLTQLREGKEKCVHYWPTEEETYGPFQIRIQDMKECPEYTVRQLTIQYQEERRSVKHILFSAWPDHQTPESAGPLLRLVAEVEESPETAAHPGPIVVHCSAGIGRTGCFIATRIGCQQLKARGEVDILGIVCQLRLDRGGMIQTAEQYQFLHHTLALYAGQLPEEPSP

[11] = biological target: Bifunctional protein GlmU (Mycobacterium tuberculosis, UniProt P9WMN3); experiment: Inhibitors of Mycobacterial Glucosamine-1-phosphate acetyl transferase (GlmU). Secondary screen.; parameters: species or system Mycobacterium tuberculosis H37Rv
[12] = biological target: Glucose-6-phosphate 1-dehydrogenase (Homo sapiens, UniProt P11413); experiment: inhibition of Homo sapiens G6PD, dose series – biochemical, fluorescence, selectivity assay for P. falciparum G6PD inhibitor project, dose response (AID 504792); assay type: functional
[13] = biological target: T7, Voltage-gated N-type calcium channel alpha-1B subunit/Amyloid beta A4 precursor protein-binding family A member 1 (Homo sapiens, UniProt Q00975+Q02410); assay type: protein assay
T7 sequence (Q00975 whole entry): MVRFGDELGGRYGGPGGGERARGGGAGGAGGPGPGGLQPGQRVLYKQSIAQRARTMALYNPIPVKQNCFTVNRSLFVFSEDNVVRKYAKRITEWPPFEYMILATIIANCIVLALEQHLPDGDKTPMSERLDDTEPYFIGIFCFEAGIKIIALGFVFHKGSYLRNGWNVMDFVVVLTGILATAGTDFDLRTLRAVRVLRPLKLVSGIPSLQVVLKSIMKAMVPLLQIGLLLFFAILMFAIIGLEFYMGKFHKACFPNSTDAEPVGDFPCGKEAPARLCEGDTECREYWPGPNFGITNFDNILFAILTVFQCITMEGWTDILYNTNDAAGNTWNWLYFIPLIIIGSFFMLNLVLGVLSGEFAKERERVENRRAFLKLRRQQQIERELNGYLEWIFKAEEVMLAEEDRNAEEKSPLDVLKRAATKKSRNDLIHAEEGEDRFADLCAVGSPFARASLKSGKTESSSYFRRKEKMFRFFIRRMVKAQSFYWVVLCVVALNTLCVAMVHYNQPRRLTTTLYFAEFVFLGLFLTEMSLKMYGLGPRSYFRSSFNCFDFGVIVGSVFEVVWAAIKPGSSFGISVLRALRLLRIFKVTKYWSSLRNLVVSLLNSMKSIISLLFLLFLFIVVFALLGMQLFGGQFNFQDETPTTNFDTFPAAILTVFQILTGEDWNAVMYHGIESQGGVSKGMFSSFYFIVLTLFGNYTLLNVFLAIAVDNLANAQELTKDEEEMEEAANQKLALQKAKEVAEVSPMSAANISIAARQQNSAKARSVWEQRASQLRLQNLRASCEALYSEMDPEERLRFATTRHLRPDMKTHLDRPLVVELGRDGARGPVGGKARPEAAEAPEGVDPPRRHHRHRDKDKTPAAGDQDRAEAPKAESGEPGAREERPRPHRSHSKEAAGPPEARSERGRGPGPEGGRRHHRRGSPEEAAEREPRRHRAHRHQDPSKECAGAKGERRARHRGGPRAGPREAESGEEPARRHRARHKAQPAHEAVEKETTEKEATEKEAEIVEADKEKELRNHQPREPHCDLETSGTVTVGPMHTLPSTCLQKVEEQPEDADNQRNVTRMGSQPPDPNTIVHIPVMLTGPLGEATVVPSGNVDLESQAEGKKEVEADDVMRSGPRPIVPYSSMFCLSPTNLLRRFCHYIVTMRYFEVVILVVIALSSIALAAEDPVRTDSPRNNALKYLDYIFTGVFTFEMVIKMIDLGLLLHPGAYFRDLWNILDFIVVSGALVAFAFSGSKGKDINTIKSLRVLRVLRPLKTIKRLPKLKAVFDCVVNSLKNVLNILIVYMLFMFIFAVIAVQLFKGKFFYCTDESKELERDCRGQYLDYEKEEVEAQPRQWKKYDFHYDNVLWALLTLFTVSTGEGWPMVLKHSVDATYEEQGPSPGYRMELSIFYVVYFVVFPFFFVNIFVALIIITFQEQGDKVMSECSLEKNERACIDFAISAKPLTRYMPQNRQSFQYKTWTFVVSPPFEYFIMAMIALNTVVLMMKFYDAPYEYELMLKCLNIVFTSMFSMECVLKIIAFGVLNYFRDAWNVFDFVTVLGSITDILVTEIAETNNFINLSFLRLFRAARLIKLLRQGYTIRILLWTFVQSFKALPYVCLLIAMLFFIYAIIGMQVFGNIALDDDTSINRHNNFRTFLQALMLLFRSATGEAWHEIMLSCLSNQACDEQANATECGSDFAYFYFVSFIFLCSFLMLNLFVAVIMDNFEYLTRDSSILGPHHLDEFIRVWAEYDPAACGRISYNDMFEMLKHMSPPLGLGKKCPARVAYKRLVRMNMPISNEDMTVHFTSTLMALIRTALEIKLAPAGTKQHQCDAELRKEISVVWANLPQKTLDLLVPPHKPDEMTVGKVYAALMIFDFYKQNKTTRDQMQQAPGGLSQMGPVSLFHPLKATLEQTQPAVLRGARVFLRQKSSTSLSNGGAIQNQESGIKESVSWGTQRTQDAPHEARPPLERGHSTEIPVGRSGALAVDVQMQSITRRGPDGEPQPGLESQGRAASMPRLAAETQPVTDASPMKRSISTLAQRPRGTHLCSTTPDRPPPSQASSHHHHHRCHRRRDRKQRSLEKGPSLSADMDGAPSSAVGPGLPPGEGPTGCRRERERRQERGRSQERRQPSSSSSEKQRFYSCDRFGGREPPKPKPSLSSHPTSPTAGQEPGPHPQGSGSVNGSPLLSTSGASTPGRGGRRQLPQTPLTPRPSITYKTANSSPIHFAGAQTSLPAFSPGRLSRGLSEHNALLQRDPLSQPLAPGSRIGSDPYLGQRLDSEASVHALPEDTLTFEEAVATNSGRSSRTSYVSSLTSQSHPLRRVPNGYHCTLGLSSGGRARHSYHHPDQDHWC
T7 sequence (Q02410 whole entry): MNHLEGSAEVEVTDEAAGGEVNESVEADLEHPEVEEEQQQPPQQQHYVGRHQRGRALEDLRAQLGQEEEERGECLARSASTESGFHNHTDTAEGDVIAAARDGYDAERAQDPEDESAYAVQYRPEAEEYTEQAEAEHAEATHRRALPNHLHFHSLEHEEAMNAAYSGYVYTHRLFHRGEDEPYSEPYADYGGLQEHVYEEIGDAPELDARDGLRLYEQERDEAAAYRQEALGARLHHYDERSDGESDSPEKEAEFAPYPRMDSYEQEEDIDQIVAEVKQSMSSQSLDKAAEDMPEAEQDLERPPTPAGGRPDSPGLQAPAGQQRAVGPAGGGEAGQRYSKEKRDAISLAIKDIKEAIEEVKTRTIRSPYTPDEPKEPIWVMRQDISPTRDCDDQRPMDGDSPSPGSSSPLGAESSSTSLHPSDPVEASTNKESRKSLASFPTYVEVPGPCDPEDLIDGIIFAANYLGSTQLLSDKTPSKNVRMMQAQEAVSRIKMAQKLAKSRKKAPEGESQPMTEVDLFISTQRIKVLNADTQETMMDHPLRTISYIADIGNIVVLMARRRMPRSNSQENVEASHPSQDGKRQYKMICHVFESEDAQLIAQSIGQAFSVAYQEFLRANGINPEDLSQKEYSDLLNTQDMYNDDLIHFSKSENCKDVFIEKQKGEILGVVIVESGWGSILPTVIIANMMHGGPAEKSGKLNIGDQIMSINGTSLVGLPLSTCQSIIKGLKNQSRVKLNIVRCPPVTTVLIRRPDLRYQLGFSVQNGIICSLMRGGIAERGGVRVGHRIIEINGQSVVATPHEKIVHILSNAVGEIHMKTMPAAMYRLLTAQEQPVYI

[14] = biological target: Eukaryotic translation initiation factor 4E (Mus musculus, UniProt P63073); experiment: blockers of eIF4G binding by eIF4E – biochemical, TR-FRET, dose response (AID 855); assay type: functional;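 further: potency for disrupting eIF4E binding to eIF4GI seen as loss of FRET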
[15] = biological target: T7, Voltage-gated N-type calcium channel alpha-1B subunit/Amyloid beta A4 precursor protein-binding family A member 1; assay type: protein assay; remark: listed apart in the source
[16] = biological target: T8, Mannose-6-phosphate isomerase (Homo sapiens, UniProt P34949); experiment: MPI inhibition at elevated mannose 6-phosphate – biochemical, fluorescence intensity, high mannose 6-phosphate, primary screen (AID 1220)
T8 sequence (P34949 whole entry): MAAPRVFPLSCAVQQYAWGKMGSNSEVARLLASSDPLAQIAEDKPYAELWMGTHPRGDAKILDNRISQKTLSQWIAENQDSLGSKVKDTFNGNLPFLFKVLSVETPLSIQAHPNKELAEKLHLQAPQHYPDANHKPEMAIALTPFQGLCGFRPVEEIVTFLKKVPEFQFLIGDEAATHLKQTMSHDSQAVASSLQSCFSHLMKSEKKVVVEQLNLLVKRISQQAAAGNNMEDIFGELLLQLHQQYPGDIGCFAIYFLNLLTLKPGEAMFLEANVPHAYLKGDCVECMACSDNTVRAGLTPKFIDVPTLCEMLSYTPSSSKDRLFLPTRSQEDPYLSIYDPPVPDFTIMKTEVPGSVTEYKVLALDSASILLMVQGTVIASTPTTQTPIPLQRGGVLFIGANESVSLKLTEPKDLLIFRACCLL

[17] = biological target: Induced myeloid leukemia cell differentiation protein Mcl-1 (Homo sapiens, UniProt Q07820); assay type: functional

## CC(C)C1Nc2ccc(C(=O)O)cc2C2C=CCC21 (configuration not stated)
[1]
  AC50: > 20 µM (inactive)
[2]
  IC50: 21.8 µM (active)
Vero
  CC50: > 40 µM (active)
Genome polyprotein
  IC50: 38.7 µM (active)
[3]
  IC50: 16.2 µM (active)

## Cc1cc(Cl)c(OCCCSc2nc(C)cc(O)n2)c(Br)c1
Integrin alpha-L
  EC50: 17.1 µM (active)
T-cell
  EC50: 56.6 µM (inactive)

## Cc1cc(NC(=O)COC(=O)c2c(C)nn(Cc3ccccc3)c2C)no1
Coagulation factor XII
  IC50: > 50 µM (inactive)

## COc1ccc(S(=O)(=O)NCc2ccc(C(=O)NCCN(Cc3ccccc3)Cc3ccccc3)cc2)cc1
[4]
  IC50: > 20 µM (inactive)
Mu-type opioid receptor
  IC50: > 32 µM (inactive)
[5]
  IC50: 13.1 µM (inactive)
[6]
  IC50: > 32 µM (inactive)

## O=C(Nc1cc(Cl)ccc1C(=O)O)c1ccc2c(c1)OCO2
Hexokinase
  IC50: 9.43 µM (active)

## O=C(NCc1ccccc1)c1cn(CCOc2ccccc2)c2ccccc12
[7]
  IC50: > 100 µM (inactive)
[8]
  IC50: > 100 µM (inactive)
[9]
  IC50: > 100 µM (inactive)
[10]
  IC50: 44.1 µM (active)

## Oc1ccc(/C=N/N=C(c2ccccc2)c2ccccc2)c(O)c1O
[11]
  IC50: 19.3 µM (active)
[12]
  IC50: 79.2 µM (inactive)
[1]
  AC50: 0.635 µM (active)
[13]
  IC50: 3.27 µM (active)
[14]
  IC50: > 64 µM (inactive)
[15]
  IC50: 10.8 µM (active)
Vero
  CC50: 31.3 µM (active)
Genome polyprotein
  IC50: 23.4 µM (active)
[16]
  IC50: 12.1 µM (active)
[17]
  IC50: 4.44 µM (active)
